Here are results for six substances from patent US8017578B2, “Orally active peptides that prevent cell damage and death” (The United States of America as represented by the …, priority 1999, dated 2011).

For experiment [1], the system named is dissociated cerebral cortical cultures (neurons). The class given is cell-based, rat. As to conditions: 5 days.
Another experiment relates to mice. The experiment in a line: fetal alcohol syndrome (FAS) model in pregnant mice. The conditions noted are these: for fetal demise rate: pretreatment 30 minutes prior to alcohol on E8, 20 μg (each), injection, assessed E18, vs alcohol group.
Experiment [2] deals with choline acetyl transferase activity. The conditions noted are these: ApoE-deficient mice with reduced choline acetyl transferase activity; cited from earlier work.
The next experiment concerns AF64A-treated rats. The experiment in a line: AF64A cholinotoxicity in adult rats, Morris water maze. The conditions noted are these: for Morris water maze, summation of the two daily tests, vs AF64A / Morris water maze, summation of the two daily tests: 10 microgram per rat per day under the tongue. Type of experiment: in vivo. From the text:
FIGS. 14A and B illustrate the effect of oral administration of D-NAPVSIPQ+D-SALLRSIPA on learning and memory in rats treated with the cholinotoxin AF-64A. Short-term memory processes were examined by performance in the Morris water maze, measuring the time required to find the hidden platform in the second of two daily trials. The platform location and the starting point in which the animal was placed in the water were held constant within each pair of daily trials, but both locations were changed every day. For the first test, both the platform and the animal were situated in a new location with regard to the pool (with the pool being immobile). The experiment was performed as follows: the animal was positioned on the platform for 0.5 minute, then placed in the water. […] After 0.5 minute on the platform, the animal was placed back in the water (in the previous position) for an additional second test (FIG. 14B) and search for the hidden platform (retained in the previous position). The time required to reach the platform in the second trial was recorded, indicative of short-term (working) memory. All measurements were performed using the computerized video-assisted HVS water maze system (HVS Image Ltd. Hampton, UK). Animals were tested for four days to eliminate random memory defective animals. The designated n is the number of animals tested. Each point is the mean+the standard error.
Rats (male Wistar, 300-350 g) were subjected to two daily tests in a water maze, including a hidden platform (Morris, J. Neurosci. Methods 11:47-60 (1984) and Gordon et al., Neurosci. Lett. 199:1-4 (1995); Gozes et al., J. Neurobiol. 33:329-342 (1997)). Every day for the first test, both the platform and the animal were situated in a new location with regard to the pool (with the pool being immobile). The experiment was performed as follows: the animal was positioned on the platform for 0.5 minutes then placed in the water. The time required to reach the platform (indicative of learning and intact reference memory) was measured (first test). After 0.5 minute on the platform, the animal was placed back in the water (in the previous position) for an additional second test and search for the hidden platform (retained in the previous position). The time required to reach the platform in the second trial was recorded, indicative of short-term (working) memory. All measurements were performed using the computerized video-assisted HVS water maze system (HVS Image Ltd. Hampton, UK). Animals were tested for four days to eliminate random memory defective animals. The best performers were injected i.c.v. at a rate of 0.21 μl/min. with the cholinotoxin ethylcholine aziridium (AF64A, 3 nmolI2 μl/side), control animals received an injection of saline (Gozes et al, Proc. Natl. Acad. Sci. USA 93:427-432 (1996)).
Animals were allowed to recover for one week, followed by daily exposure to three micrograms of D-SAL+three micrograms of D-NAP, in 20 microliter saline, applied orally on the tongue. After a week of oral peptide application, the animals were subjected to two daily tests in the water maze (as above). During the test-period, animals were also given an oral administration of peptide or vehicle (carrier) an hour before the daily test.
FIG. 14C illustrates the effect of oral administration of D-SALLRSIPA alone on learning and memory in rats treated with the cholinotoxin AF-64A. Rats were treated with the cholinotoxin AF-64A and D-SALLRSIPA as described in Gozes et al., J. Pharmacol. Exp. Therap. 293: 1091-1098 (2000), except that D-SALLRSIPA was delivered to AF64A-treated rats was as follows: 10 microgram D-SALLRSIPA (D-SAL) per rat (250-300 g) per day in 50 microliter saline under the tongue, using a micropipette. Peptides were applied once daily for three days, a week after the AF64A lesion. After a 2-day cessation, peptides were applied once daily for another 5 days and tested from day three on. […]

Where [3] appears, read: single peptide, 1 μM tetrodotoxin, neuronal cell counts.

“Also recorded” adds a separate entry of the source. Like-named read-outs stand apart in the source and are kept apart here. Square brackets hold non-standard residues; d marks the D form. Ends that are not written are not given here.

In the case of Asn-Ala-Pro-Val-Ser-Ile-Pro-Gln [D-NAP], the “survival-promoting activity (preventing neuronal cell death associated with electrical blockade with TTX)” value (“survival-promoting activity” for short) in experiment [1] (setting [3]) is given as “very similar, with each exhibiting a complex dose response with two apparent maxima; also recorded: virtually identical in neuronal survival activity in vitro”. Also, the fetal demise rate entry in the experiment on mice is “significantly reduced the fetal demise rate; also recorded: prevents fetal demises”.

As to “Asn-Ala-Pro-Val-Ser-Ile-Pro-Gln [L-NAP, reference compound]”, in experiment [2], the cholinergic function entry is given as “significantly increased cholinergic function to control levels”. Besides, the “survival-promoting activity” value in experiment [1] (setting [3]) was “very similar, with each exhibiting a complex dose response with two apparent maxima; also recorded: virtually identical in neuronal survival activity in vitro”.

With “D-NA{L-P}VSIPQ: NAPVSIPQ with all amino acids in the D-form, except the third proline residue in the L-form”, in experiment [1], the “survival-promoting activity” value was “retained survival-promoting activity and was effective in cell culture in preventing neuronal cell death”.

For the substance SALLRSIPA [L-SAL], in experiment [2], the cholinergic function result is on record as “less effective”.

For the substance SALLRSIPA [reference compound], in experiment [1] (setting [3]), the “survival-promoting activity” value is “identical in both potency and efficacy; also recorded: virtually identical in neuronal survival activity in vitro”.

“Ser-Ala-Leu-Leu-Arg-Ser-Ile-Pro-Ala [D-SAL] ([dS][dA][dL][dL][dR][dS][dI][dP][dA])”: in experiment [1] (setting [3]), the “survival-promoting activity” value was “identical in both potency and efficacy; also recorded: virtually identical in neuronal survival activity in vitro”. In addition, in the experiment with mice (oral by gavage 30 minutes prior to alcohol, 40 μg, assessed on E18), the fetal death entry is reported as “prevent fetal death”. Moreover, in the experiment with mice, the fetal demise rate entry is listed as “significantly reduced the fetal demise rate; also recorded: prevents fetal demises”. For the same substance, the “learning and memory, overall conclusion” value with AF64A-treated rats (D-SALLRSIPA alone, oral, AF64A-treated rats) is on record as “effective on its own”. The “Morris water maze, summation of the two daily tests, vs AF64A” value in the experiment with AF64A-treated rats (Day 1) is on record as “P<0.04 D-SALLRSIPA-AF64A vs. AF64A”; in the experiment on AF64A-treated rats (Day 5, t-test) it was “P<0.04 D-SALLRSIPA-AF64A vs. AF64A”. For the same substance, the “Morris water maze, summation of the two daily tests” value in the experiment with AF64A-treated rats (Day 2) is on record as “not significantly different from either AF64A animals or control”; with AF64A-treated rats (Day 3) it was “No difference”; in the experiment with AF64A-treated rats (Day 4), “No difference”.
